From US20070128217A1 (priority 2003, published 2007) come the findings set out here.

Experiment [1] deals with antibodies in sera from SARS patients (sera 1a, 1b, 2, 6, 37, 62, London, SARS-yellow, SARS-green). The format is binding, human. Set-up: Binding of serum 6 to linear peptides of protein X1 of SARS-CoV Urbani / Binding of serum 37 to linear peptides of protein X1 of SARS-CoV Urbani / Binding of serum 6 to looped/cyclic peptide (PEPSCAN-ELISA) / Binding of serum 37 to looped/cyclic peptide (PEPSCAN-ELISA) / Binding of serum 37 to looped/cyclic peptides of protein X1 of SARS-CoV Urbani / Binding of serum 6 to linear peptides of protein X2 / Binding of serum 37 to linear peptides of protein X2 / Binding of serum 37 to looped/cyclic peptides of protein X2 of SARS-CoV Urbani / Binding of serum 6 to linear peptides of protein M of SARS-CoV Urbani / Binding of serum 37 to linear peptides of protein M of SARS-CoV Urbani / Binding of serum 6 to looped/cyclic peptides of protein M of SARS-CoV Urbani / Binding of serum 37 to looped/cyclic peptides of protein M of SARS-CoV Urbani / Binding of serum 6 to linear peptides of protein X3 of SARS-CoV Urbani / Binding of serum 37 to linear peptides of protein X3 of SARS-CoV Urbani / Binding of serum 37 to looped/cyclic peptides of protein X3 of SARS-CoV Urbani / Binding of serum 6 to linear peptides of protein X4 of SARS-CoV Urbani / Binding of serum 37 to linear peptides of protein X4 of SARS-CoV Urbani / Binding of serum 37 to looped/cyclic peptides of protein X4 of SARS-CoV Urbani / Binding of serum 6 to linear peptides of protein X5 of SARS-CoV Urbani / Binding of serum 37 to linear peptides of protein X5 of SARS-CoV Urbani / Binding of serum 37 to looped/cyclic peptides of protein X5 of SARS-CoV Urbani / Binding of serum 6 to linear peptides of protein N of SARS-CoV Urbani / Binding of serum 37 to linear peptides of protein N of SARS-CoV Urbani / Binding of serum 6 to linear peptide (PEPSCAN-ELISA) / Binding of serum 1a to looped/cyclic peptides of protein N of SARS-CoV Urbani / Binding of serum 1b to looped/cyclic peptides of protein N of SARS-CoV Urbani / Binding of serum 2 to looped/cyclic peptides of protein N of SARS-CoV Urbani / Binding of serum 6 to looped/cyclic peptides of protein N of SARS-CoV Urbani / Binding of serum 37 to looped/cyclic peptides of protein N of SARS-CoV Urbani / Binding of serum 62 to looped/cyclic peptides of protein N of SARS-CoV Urbani / Binding of serum London to looped/cyclic peptides of protein N of SARS-CoV Urbani / Binding of serum SARS-green to looped/cyclic peptides of protein N of SARS-CoV Urbani: unit not given here.

Experiment [2] concerns rabbit serum obtained by immunizing a rabbit with the SARS-CoV strain Frankfurt 1. The experiment is classed as binding. Set-up: Binding of a rabbit serum to linear peptides / Binding of a rabbit serum to looped peptides / Rabbit serum linear peptides / Rabbit serum looped peptides / Binding of a rabbit serum to linear peptides of protein N of SARS-CoV Urbani (Rabbit serum linear peptides) / Binding of a rabbit serum to looped/cyclic peptides of protein N of SARS-CoV Urbani (Rabbit serum looped peptides): unit not given here.

With ATKIIALNKRWQLAL, in experiment [1], the “Binding of serum 1a to linear peptides of protein X1 of SARS-CoV Urbani” value (from here on “Binding of serum 1a … of SARS-CoV Urbani”) was determined as 0.7, the “Binding of serum 1a to looped/cyclic peptide (PEPSCAN-ELISA)” value was 0.6, the “Binding of serum 1b to linear peptides of protein X1 of SARS-CoV Urbani” value (shortened to “Binding of serum 1b … of SARS-CoV Urbani”) is on record as 0.6 and the “Binding of serum 1b to looped/cyclic peptide (PEPSCAN-ELISA)” value is recorded as 0.4. Besides, in experiment [1], the “Binding of serum 2 to linear peptides of protein X1 of SARS-CoV Urbani” value worked out at 0.6, the “Binding of serum 2 to looped/cyclic peptide (PEPSCAN-ELISA)” value is given as 0.5, the “Binding of serum 6 to linear peptides of protein X1 of SARS-CoV Urbani” value is listed as 0.7 and the “Binding of serum 6 to looped/cyclic peptide (PEPSCAN-ELISA)” value was determined as 0.5. For the same sequence, in experiment [1], the “Binding of serum 37 to linear peptides of protein X1 of SARS-CoV Urbani” value is 0.8, the “Binding of serum 37 to looped/cyclic peptide (PEPSCAN-ELISA)” value came out at 0.6, the “Binding of serum 62 to linear peptides of protein X1 of SARS-CoV Urbani” value is listed as 0.8 and the “Binding of serum 62 to looped/cyclic peptide (PEPSCAN-ELISA)” value came out at 0.7. For the same sequence, in experiment [1], the “Binding of serum London to linear peptides of protein X1 of SARS-CoV Urbani” value (“Binding of serum London … of SARS-CoV Urbani” below) was 0.4, the “Binding of serum London to looped/cyclic peptide (PEPSCAN-ELISA)” value worked out at 0.3, the “Binding of serum SARS-green to linear peptides of protein X1 of SARS-CoV Urbani” value (from here on “Binding of serum SARS-green … of SARS-CoV Urbani”) came out at 0.3 and the “Binding of serum SARS-green to looped/cyclic peptide (PEPSCAN-ELISA)” value was 0.3. In addition, in experiment [1], the “Binding of serum SARS-yellow to linear peptides of protein X1 of SARS-CoV Urbani” value came to 0.7 and the “Binding of serum SARS-yellow to looped/cyclic peptide (PEPSCAN-ELISA)” value is listed as 0.6. Also, in experiment [2], the “Recognition of the peptide by the rabbit serum” value (shortened to “Recognition of the peptide”) is “recognized”.

AVFQSATKIIALNKR: in experiment [1], the “Binding of serum 1a … of SARS-CoV Urbani” value was determined as 0.8, the “Binding of serum 1a to looped/cyclic peptide (PEPSCAN-ELISA)” value came out at 0.4, the “Binding of serum 1b … of SARS-CoV Urbani” value is reported as 0.6 and the “Binding of serum 1b to looped/cyclic peptide (PEPSCAN-ELISA)” value is on record as 0.4. Besides, in experiment [1], the “Binding of serum 2 to linear peptides of protein X1 of SARS-CoV Urbani” value is listed as 0.6, the “Binding of serum 2 to looped/cyclic peptide (PEPSCAN-ELISA)” value is given as 0.6, the “Binding of serum 6 to linear peptides of protein X1 of SARS-CoV Urbani” value came out at 0.8 and the “Binding of serum 6 to looped/cyclic peptide (PEPSCAN-ELISA)” value is on record as 0.7. Moreover, in experiment [1], the “Binding of serum 37 to linear peptides of protein X1 of SARS-CoV Urbani” value is 0.7, the “Binding of serum 37 to looped/cyclic peptide (PEPSCAN-ELISA)” value was found to be 0.6, the “Binding of serum 62 to linear peptides of protein X1 of SARS-CoV Urbani” value is reported as 0.6 and the “Binding of serum 62 to looped/cyclic peptide (PEPSCAN-ELISA)” value was found to be 0.6. In experiment [1], the “Binding of serum London … of SARS-CoV Urbani” value came out at 0.3, the “Binding of serum London to looped/cyclic peptide (PEPSCAN-ELISA)” value is 0.9, the “Binding of serum SARS-green … of SARS-CoV Urbani” value was determined as 0.3 and the “Binding of serum SARS-green to looped/cyclic peptide (PEPSCAN-ELISA)” value is given as 0.2. For the same sequence, in experiment [1], the “Binding of serum SARS-yellow to linear peptides of protein X1 of SARS-CoV Urbani” value is on record as 0.5 and the “Binding of serum SARS-yellow to looped/cyclic peptide (PEPSCAN-ELISA)” value is listed as 0.4. Besides, in experiment [2], the “Recognition of the peptide” value is on record as “recognized”.

CPSGTYEGNSPFNPL: in experiment [2], the “Rabbit serum linear peptides” value amounted to 0.5 and the “Rabbit serum looped peptides” value stood at 0.7.

Turning to CWYLHEGHQTAAFRD, in experiment [2], the “Rabbit serum linear peptides” value was determined as 0.3 and the “Rabbit serum looped peptides” value was determined as 0.4.

For the sequence FQSATKIIALNKRWQ, in experiment [1], the “Binding of serum 1a … of SARS-CoV Urbani” value worked out at 0.8, the “Binding of serum 1a to looped/cyclic peptide (PEPSCAN-ELISA)” value turned out to be 0.5, the “Binding of serum 1b … of SARS-CoV Urbani” value is recorded as 0.6 and the “Binding of serum 1b to looped/cyclic peptide (PEPSCAN-ELISA)” value was 0.3. Besides, in experiment [1], the “Binding of serum 2 to linear peptides of protein X1 of SARS-CoV Urbani” value is reported as 0.6, the “Binding of serum 2 to looped/cyclic peptide (PEPSCAN-ELISA)” value was found to be 0.4, the “Binding of serum 6 to linear peptides of protein X1 of SARS-CoV Urbani” value is 0.6 and the “Binding of serum 6 to looped/cyclic peptide (PEPSCAN-ELISA)” value was determined as 0.5. In experiment [1], the “Binding of serum 37 to linear peptides of protein X1 of SARS-CoV Urbani” value amounted to 0.7, the “Binding of serum 37 to looped/cyclic peptide (PEPSCAN-ELISA)” value is 0.5, the “Binding of serum 62 to linear peptides of protein X1 of SARS-CoV Urbani” value was 0.7 and the “Binding of serum 62 to looped/cyclic peptide (PEPSCAN-ELISA)” value came out at 0.5. Also, in experiment [1], the “Binding of serum London … of SARS-CoV Urbani” value was found to be 0.3, the “Binding of serum London to looped/cyclic peptide (PEPSCAN-ELISA)” value came out at 0.2, the “Binding of serum SARS-green … of SARS-CoV Urbani” value is given as 0.4 and the “Binding of serum SARS-green to looped/cyclic peptide (PEPSCAN-ELISA)” value was determined as 0.3. For the same sequence, in experiment [1], the “Binding of serum SARS-yellow to linear peptides of protein X1 of SARS-CoV Urbani” value was 0.4 and the “Binding of serum SARS-yellow to looped/cyclic peptide (PEPSCAN-ELISA)” value was determined as 0.2. In addition, the “Recognition of the peptide” value in experiment [2] is recorded as “recognized”.

Consider GHLRMAGHPLGRCDI, for which, in experiment [2], the “Rabbit serum linear peptides” value was 0.4 and the “Rabbit serum looped peptides” value is on record as 0.7.

Consider GHPLGRCDTKDLPKE, for which, in experiment [2], the “Rabbit serum linear peptides” value was 0.3 and the “Rabbit serum looped peptides” value is 0.0.

For the sequence GNSPFHPLADNKFAL, in experiment [2], the “Rabbit serum linear peptides” value was 0.5 and the “Rabbit serum looped peptides” value is on record as 1.0.

Take GTHITMTTVYHITVS: in experiment [2], the “Binding of a rabbit serum to linear peptides” value worked out at 2.1 and the “Binding of a rabbit serum to looped peptides” value (from here on “Binding … to looped peptides”) turned out to be 0.4.

On to HEGHQTAAFRDVLVV, for which, in experiment [2], the “Rabbit serum linear peptides” value is listed as 0.2 and the “Rabbit serum looped peptides” value was determined as 0.8.

With IARCWYLHEGHQTAA, in experiment [2], the “Rabbit serum linear peptides” value came out at 0.7 and the “Rabbit serum looped peptides” value was 0.3.

As to IIRGHLRMAGHPLGR, in experiment [2], the “Rabbit serum linear peptides” value was 0.6 and the “Rabbit serum looped peptides” value was found to be 2.0.

IMRCWLCWKGKSKNP: in experiment [2], the “Binding of a rabbit serum to linear peptides” value was 0.1 and the “Binding … to looped peptides” value is 0.3.

LFAGTHITMTTVYHI: in experiment [2], the “Binding of a rabbit serum to linear peptides” value was 0.6 and the “Binding … to looped peptides” value is 0.5.

Regarding MMPTTLFAGTHITMT, in experiment [2], the “Binding of a rabbit serum to linear peptides” value came to 0.6 and the “Binding … to looped peptides” value came to 0.6.

With MPTTLFAGTHITMTT, in experiment [2], the “Binding of a rabbit serum to linear peptides” value was 0.7 and the “Binding … to looped peptides” value is 0.3.

For MVQTCTPNVTINCQD, in experiment [2], the “Rabbit serum linear peptides” value is 0.5 and the “Rabbit serum looped peptides” value amounted to 0.2.

For NASPASTVHATATIP, in experiment [2], the “Binding of a rabbit serum to linear peptides” value worked out at 0.6 and the “Binding … to looped peptides” value was determined as 0.3.

As for NSPFHPLADNKFALT, in experiment [2], the “Rabbit serum linear peptides” value was 0.5 and the “Rabbit serum looped peptides” value is listed as 0.7.

Turning to PASTVHATATIPLQA, in experiment [2], the “Binding of a rabbit serum to linear peptides” value turned out to be 0.9 and the “Binding … to looped peptides” value was 0.5.

For the sequence PTTLFAGTHITMTTV, in experiment [2], the “Binding of a rabbit serum to linear peptides” value came out at 0.8 and the “Binding … to looped peptides” value is 0.4.

With SPASTVHATATIPLQ, in experiment [2], the “Binding of a rabbit serum to linear peptides” value is reported as 1.0 and the “Binding … to looped peptides” value was found to be 0.4.

STVHATATIPLQASL: in experiment [2], the “Binding of a rabbit serum to linear peptides” value came to 0.6 and the “Binding … to looped peptides” value was determined as 0.5.

With TITVEELKQLLEQWN, the “Recognition of the peptide” value in experiment [2] is listed as “recognized”.

Consider TLFAGTHITMTTVYH, for which, in experiment [2], the “Binding of a rabbit serum to linear peptides” value was 0.7 and the “Binding … to looped peptides” value came to 0.5.

As for TTLFAGTHITMTTVY, in experiment [2], the “Binding of a rabbit serum to linear peptides” value came out at 0.6 and the “Binding … to looped peptides” value is recorded as 0.3.

Turning to VEELKQLLEQWNLVI, in experiment [2], the “Recognition of the peptide” value was “recognized”.

Regarding YEGNSPFHPLADNKF, in experiment [2], the “Rabbit serum linear peptides” value was 0.6 and the “Rabbit serum looped peptides” value is on record as 0.5.

Consider YLHEGHQTAAFRDVL, for which, in experiment [2], the “Rabbit serum linear peptides” value was determined as 0.2 and the “Rabbit serum looped peptides” value stood at 0.6.
